# According to ChEMBL document CHEMBL3507680, “University of Dundee, Gates Library screen for HepG2 cell viability”:
# Assay: Human HepG2 cell viability assay in 384 well format
# Format: toxicity, cell-based
# Parameters: dose 125 nL, time 70.5 hour; concentration not given beside the values
# Settings: HepG2 cells, read-out: Inhibition
row,SMILES,cytotoxicity at 70.5 h [%]
1,O=C(NCCCN1CCCC1=O)Nc1ccc(Br)cc1Cl,-3.68
2,Cc1cccc(NC(=O)CN2C(=O)CC(C)(C)c3ccccc32)n1,-8.87
3,CC1(C)CC(=O)N(CC(=O)Nc2ccon2)c2ccccc21,-6.95
4,O=C(Nc1cc(-c2ccncc2)no1)C1CCCCC1,-6.08
5,CCn1nc(C)c(NC(=O)c2nnn(Cc3ccccc3)c2OC)c1C,-5.09
6,O=C(Nc1cc(-c2cccnc2)no1)C1CCC1,-13
7,O=C(Nc1cc(-c2ccccn2)no1)C1CC1,11.7
8,CCCNC(=O)c1cc(C(C)C)nc(N2CCCCC2)n1,3.03
9,CC(C)c1cc(C(=O)NCCN2CCOCC2)nc(N2CCCC2)n1,-3.85
10,Cc1ccnc(NC(=O)c2cccc(OCc3nnnn3C)c2)c1,-17.9
11,Cc1ccc(NC(=O)c2cccc(OCc3nnnn3C)c2)nc1,-9.18
12,CC(C)n1cc(N2CC(C(=O)N3CCN(C)CC3)CC2=O)cn1 (centres undefined),-10.8
13,CC(C)n1cc(N2CC(C(=O)N3CCCC3)CC2=O)cn1 (centres undefined),-6.71
14,COC(=O)CCn1ccc(=O)c2cc(OC)ccc21,-0.582
15,Oc1ccccc1-c1n[nH]c(C2CC2)n1,11.6
16,Cc1cc2nc(O)c(O)nc2cc1S(=O)(=O)NC1CC1,-12.3
17,CCn1nc(C)c2nc(C(C)C)nc(NCCCO)c21,-16.2
18,CCCc1nc(NCCCO)c2c(n1)c(C)nn2CC,-14
19,CCNC(=O)c1nnn(Cc2ccccc2)c1OC,-7.02
20,CCN(CC)C(=O)c1nnn(Cc2ccccc2)c1OC,0.599
21,CC(=O)Nc1ncc(S(=O)(=O)Nc2ccc(F)cc2F)s1,-0.452

row,SMILES,cytotoxicity at 70.5 h [%]
1,COC(=O)c1cccc(NS(=O)(=O)c2cnc(NC(C)=O)s2)c1,-1.8
2,O=C(Cn1cc(I)cn1)N1CCc2ccccc2C1,-3.15
3,CCc1nc(NCCCn2cccn2)c2c(n1)c(C)nn2C,-1.69
4,CCc1nc(NCCCOC)c2c(n1)c(C)nn2C,-13.4
5,CCn1nccc1CNC(=O)C(C)n1cc2c(n1)c(C)nn2C (centres undefined),3.69
6,Cc1cc(C(F)(F)F)nn1CC(C)C(=O)Nc1ccncc1 (centres undefined),1.22
7,Cc1cc(C(F)(F)F)nn1C(C)C(=O)Nc1ccncc1 (centres undefined),23.9
8,COc1ccc(CNC(=O)c2nn(C)c3c2CS(=O)(=O)CC3)cc1OC,1.56
9,Cc1nn(C)c2c(N3CCN(C(=O)C4CCC4)CC3)ncnc12,-5.94
10,CN(C)C(=O)CNC(=O)CCn1ncc2c(Cl)cccc21,-5.6
11,O=C(NCc1ccccc1)c1nnc2ccc(N3CCOCC3)cc2n1,4.86
12,CCCNC(=O)c1cnc(N(C)C)nc1COC,-5.33
13,COc1ccccc1CNC(=O)Cn1ncc2c1c(C)nn2C,0.128
14,CCN(CC)C(=O)c1ccn(COc2cc(C)cc(C)c2)n1,4.47
15,CCN(CC)CCNC(=O)c1ccn(COc2cc(C)cc(C)c2)n1,-3.13
16,CCCN1CCN(C(=O)C(C)n2cc(Br)cn2)CC1 (centres undefined),-7.56
17,Cc1cccc2c1cnn2CCCNC(=O)C(C)C,-10
18,CC1(C)CC(N2Cc3nc(N)ncc3C2=O)CC(C)(C)N1,-8
19,CCOc1ccc(N2CCCN=C2NC(=O)c2cccc(Cl)c2)cc1,-9.1
20,CCOC(=O)CNC(=O)N1CCN(c2ncccn2)CC1,-4.84
21,CC(C)c1ccc(OCn2ccc(C(=O)N3CCCC3)n2)cc1,-4.33

row,SMILES,cytotoxicity at 70.5 h [%]
1,Cc1nc(NCCc2ccc(Cl)cc2)cc(C(=O)N2CCOCC2)n1,-7.59
2,CC(C(=O)NCCCn1ccnc1)n1cc(Br)cn1 (centres undefined),-9.82
3,Cc1nn(CC(=O)N2CCN(c3ccccc3F)CC2)c(C)c1Cl,-2.28
4,CCC(C)c1noc(C2CCN(C(=O)c3cccnc3)CC2)n1 (centres undefined),-12.8
5,CCn1cc(Br)c(C(=O)NCc2cnn(C)c2)n1,-13.6
6,CCn1cc(CN2C[C@@H]3CCCN3C[C@H]2CCSC)c(C)n1,-4.8
7,Cc1cc(N(C)C)nc(C2(C)CCCN2C(=O)c2ccccc2)n1 (centres undefined),-8.94
8,OCCN1CCC(c2cncc(-c3cccc(Cl)c3)n2)CC1,-3.96
9,c1cc(N2CCCC2c2cnccn2)ncn1 (centres undefined),-10
10,Cc1cc(N2CCCC2c2nccnc2C)ncn1 (centres undefined),-5.86
11,CN1CCCC1c1ccnc(C(=O)N(C)C2CCCCC2)c1 (centres undefined),-11.9
12,CC(=O)N1CCC(c2cc(Nc3ncccn3)nc(C)n2)C1 (centres undefined),-6.88
13,COCC(=O)N1CCCCC1c1ccnc(Nc2ncc(C)s2)n1 (centres undefined),-0.578
14,O=C(c1cncnc1)N1C[C@@H]2CC[C@H](Oc3cccc(F)c3)[C@@H]2C1,-8.85
15,Cc1cc(C)nc(Nc2cncc(C3CCCN(S(C)(=O)=O)C3)n2)n1 (centres undefined),33.8
16,Cc1cccc(-c2cccc(CC3(C(=O)O)CCOCC3)c2)c1,9.91
17,COCCN1CCC(c2cncc(N(C)C)n2)CC1,16.5
18,O=C(C1CC1)N1CCC(c2nc(O)c3c(n2)CN(C2CCCC2)CC3)C1 (centres undefined),9.71
19,COCCC(=O)N1CCC(c2nc(O)cc(-c3ccncc3)n2)C1 (centres undefined),-11.8
20,Cc1c(C2CCCN(C(=O)c3ccn(C)n3)C2)n2c(nc1=O)CCC2 (centres undefined),-7.35
21,CC(=O)Nc1nc(C2CCN(C(=O)Cc3ccccc3)CC2)cs1,-5.09

row,SMILES,cytotoxicity at 70.5 h [%]
1,COCCN1CCCC(CCCc2ccccn2)(C(N)=O)C1 (centres undefined),-6.05
2,CC(=O)N1CCN(C(C)C)CC(COc2ccccc2)C1 (centres undefined),-6.04
3,COCCN1CCC(Cc2cncc(-c3ccc(C(=O)O)cc3)n2)CC1,8.54
4,Cc1cc(CN2CCOC(C)(C(=O)N3CCOCC3)C2)no1 (centres undefined),-2.61
5,CC1(C(=O)N2CCOCC2)CN(Cc2cccnc2)CCO1 (centres undefined),-8.77
6,CN(C)C(=O)C1CN(Cc2ccsc2)CCN(S(C)(=O)=O)C1 (centres undefined),-6.36
7,CN(C)C(=O)C1CN(Cc2ccccn2)CCN(S(C)(=O)=O)C1 (centres undefined),-3.97
8,NC(=O)C1(CCCc2ccncc2)CCCN1 (centres undefined),-3.08
9,CN1CCC(c2cncc(N(C)C)n2)CC1,-4.58
10,O=c1[nH]c(N2CCCCC2)nc2c1CCN(Cc1cccnc1)C2,-6.55
11,Cc1cc(-c2cnc(NC3CCCCC3)nc2-c2ccco2)on1,-9.46
12,Cc1c(C(=O)N2CCCC(n3nnc4cc(F)ccc43)C2)cnn1C (centres undefined),-14.1
13,C=Cn1cc(CN2CCc3nc(-c4cccnc4)nc(O)c3C2)c(C)n1,-3.49
14,Cc1cc(-c2cnc(NCc3ccncc3)nc2C(C)C)on1,2.62
15,O=c1[nH]c(-c2ccccn2)nc2c1CCN(Cc1cccc(O)c1)C2,-4.95
16,COc1ccc(CN2CCc3c(nc(-c4ccccn4)[nH]c3=O)C2)cc1,13.1
17,Cn1cccc1CN1CCc2c(nc(-c3ccccn3)[nH]c2=O)C1,-2.89
18,Cc1occc1-c1nc(NC2CCCC2)ncc1-c1ccccn1,1.09
19,Cn1cc(CN2CCCC(CCCc3ccccn3)(C(N)=O)C2)cn1 (centres undefined),-8.02
20,Cc1c(C2CCCN(C(=O)c3ccncc3)C2)n2c(nc1=O)CCC2 (centres undefined),-9.8
21,Cc1cnc(C(=O)N2CCCC(c3c(C)c(=O)nc4n3CCC4)C2)cn1 (centres undefined),-7.55
